{"source": "paper PMC6476176", "about": "(Ultrasound in medicine & biology, 2018)", "key": {"[1]": {"test": "Plasma T-20 concentration and pharmacokinetics in porcine model", "assay_type": "in vivo, Yorkshire pigs", "details": "Yorkshire, pig, sc, 90 mg"}, "[2]": {"test": "Histological analysis of skin samples", "assay_type": "in vivo, Yorkshire pigs", "details": "pig"}, "[3]": {"details": "cited from earlier work"}, "[4]": {"details": "T-20 subcutaneous injection twice daily 29 days, n=12"}}, "note": "Where two headings read alike, the source gives them in different places.", "data": [{"substance": "enfuvirtide", "values": [{"measurement": "AUC(0-inf)", "setting": "[1]", "result": 43300, "unit": "ng·h/mL"}, {"measurement": "Cmax", "setting": "[1]", "result": 6310, "unit": "ng/mL"}, {"measurement": "half-life", "setting": "[1]", "result": 238, "unit": "min"}, {"measurement": "tmax", "setting": "[1]", "result": 2.5, "unit": "h"}, {"measurement": "Skin irritation: Major, number of Subjects", "setting": "[2]; in vivo", "result": 1}, {"measurement": "Skin irritation: Minor, number of Subjects", "setting": "[2]; in vivo", "result": 4}, {"measurement": "Skin irritation: None, number of Subjects", "setting": "[2]; in vivo", "result": 7}, {"measurement": "Skin irritation: Similar to Eczema, number of Subjects", "setting": "[2]; in vivo", "result": 1}, {"measurement": "Skin irritation: Major+ Necrosis, number of Subjects", "setting": "[2]; in vivo, sc", "result": 3}, {"measurement": "Skin irritation: Major, number of Subjects", "setting": "[2]; [4]", "result": 3}, {"measurement": "Skin irritation: Minor, number of Subjects", "setting": "[2]; [4]", "result": 3}, {"measurement": "Skin irritation: None, number of Subjects", "setting": "[2]; [4]", "result": 2}, {"measurement": "Skin irritation: Similar to Eczema, number of Subjects", "setting": "[2]; [4]", "result": 1}, {"measurement": "AUC∞", "setting": "[3]; human, in vivo", "result": "55.8 (22%) μg·h/mL"}, {"measurement": "Cmax", "setting": "[3]; human, in vivo", "result": "4.59 (32%) μg/mL"}, {"measurement": "Tmax humans (median)", "setting": "[3]; human, in vivo", "result": 6.9, "unit": "h"}, {"measurement": "Tmax humans (range)", "setting": "[3]; human, in vivo", "result": "3 to 12", "unit": "h"}, {"measurement": "tmax", "setting": "[3]; human, in vivo", "result": "6.92 (36%) h"}, {"measurement": "t½", "setting": "[3]; human, in vivo", "result": "3.80 (15%) h"}, {"measurement": "typical human plasma Ctrough", "setting": "[3]; human, ref Usa, 2012", "result": "3.3 ± 1.6", "unit": "µg/mL"}, {"measurement": "CI", "setting": "[3]; in vivo", "result": "1.68 (22%) L/h"}]}]}
